Source: US6562756B1, “Herbicidal compositions” (Nissan Chemical Industries, Ltd., priority 1999, dated 2003)

What was measured:
Format in all cases: in vivo
maize = assay: Test on phytotoxicity to maize sown at a shallow sowing depth (soil treatment, pot test); details: for Fresh weight ratio with respect to untreated plants: maize sown at 1 cm depth, 17 days after application; for phytotoxicities to maize sown at a shallow sowing depth caused by Compound (A1), (A2), (A3) or (A4): effect of the safener: summary in words of Table 1
Description: Cylindrical pots having an inner diameter of about 11 cm and a depth of 10 cm were charged with sterilized upland soil. In each pot, three seeds of maize were separately seeded at a sowing depth of 1 cm. On the day of seeding, wettable powder appropriately formulated according to the above Formulation Examples was diluted with water and then applied with a small type sprayer at a spray volume of 10 liter/are. Seventeen days after the application, the fresh weight of aerial parts of each plant was determined and then compared with those of untreated plants.

[1] = test system: velvetleaf (Abutilon theophrasti); assay: Test on herbicidal effects by soil treatment: velvetleaf; details: four weeks after application
Description: (§1) Plastic cases having a size of 30 cm (length), 30 cm (width) and 10 cm (depth) were charged with sterilized upland soil. In each plastic case, seeds of velvetleaf (Abutilon theophrasti), common lambsquarters (Chenopodium album), redroot pigweed (Amaranthus viridis) and common ragweed (Ambrosia artemisiaefolia) were seeded, and covered with soil of 0.5 cm thickness. On the day of seeding, wettable powder appropriately formulated according to the above Formulation Examples was diluted with water and then applied with a small type sprayer at a spray volume of 10 liter/are. Four weeks after the application, the fresh weight of aerial parts of each weed was determined and then compared with those of untreated weed.

[2] = test system: common lambsquarters (Chenopodium album); assay: Test on herbicidal effects by soil treatment: common lambsquarters; details: four weeks after application
Description: as §1

[3] = test system: redroot pigweed (Amaranthus viridis); assay: Test on herbicidal effects by soil treatment: redroot pigweed; details: four weeks after application
Description: as §1

[4] = test system: common ragweed (Ambrosia artemisiaefolia); assay: Test on herbicidal effects by soil treatment: common ragweed; details: four weeks after application
Description: as §1

weeds = assay: Test on herbicidal effects by soil treatment: summary over the weeds; details: summary in words of Table 2
Description: as §1

## CCS(=O)(=O)Nc1cc(-n2c(=O)cc(C(F)(F)F)n(C)c2=O)c(F)cc1Cl [Compound (A1)]
maize; 40 g/ha
  Fresh weight ratio with respect to untreated plants: 70%
maize; 80 g/ha
  Fresh weight ratio with respect to untreated plants: 55%
[1]; 5 g/ha
  Fresh weight ratio with respect to untreated weeds, A.th: 26%
[1]; 10 g/ha
  Fresh weight ratio with respect to untreated weeds, A.th: 2%
[2]; 5 g/ha
  Fresh weight ratio with respect to untreated weeds, C.al: 13%
[2]; 10 g/ha
  Fresh weight ratio with respect to untreated weeds, C.al: 0%
[3]; 5 g/ha
  Fresh weight ratio with respect to untreated weeds, A.vi: 5%
[3]; 10 g/ha
  Fresh weight ratio with respect to untreated weeds, A.vi: 0%
[4]; 5 g/ha
  Fresh weight ratio with respect to untreated weeds, A.ar: 31%
[4]; 10 g/ha
  Fresh weight ratio with respect to untreated weeds, A.ar: 7%
weeds
  herbicidal activities in the presence of Compound (B), (C), (D) or (E): not decreased

## Cn1c(C(F)(F)F)cc(=O)n(-c2cc(NS(C)(=O)=O)c(C#N)cc2F)c1=O [Compound (A2)]
maize; 40 g/ha
  Fresh weight ratio with respect to untreated plants: 90%
maize; 80 g/ha
  Fresh weight ratio with respect to untreated plants: 76%
[1]; 5 g/ha
  Fresh weight ratio with respect to untreated weeds, A.th: 32%
[1]; 10 g/ha
  Fresh weight ratio with respect to untreated weeds, A.th: 4%
[2]; 5 g/ha
  Fresh weight ratio with respect to untreated weeds, C.al: 18%
[2]; 10 g/ha
  Fresh weight ratio with respect to untreated weeds, C.al: 0%
[3]; 5 g/ha
  Fresh weight ratio with respect to untreated weeds, A.vi: 9%
[3]; 10 g/ha
  Fresh weight ratio with respect to untreated weeds, A.vi: 0%
[4]; 5 g/ha
  Fresh weight ratio with respect to untreated weeds, A.ar: 40%
[4]; 10 g/ha
  Fresh weight ratio with respect to untreated weeds, A.ar: 10%
weeds
  herbicidal activities in the presence of Compound (B), (C), (D) or (E): not decreased

## CCS(=O)(=O)N(C(=O)C(C)(C)C)c1cc(-n2c(=O)cc(C(F)(F)F)n(C)c2=O)c(F)cc1C#N [Compound (A3)]
maize; 40 g/ha
  Fresh weight ratio with respect to untreated plants: 84%
maize; 80 g/ha
  Fresh weight ratio with respect to untreated plants: 60%
[1]; 5 g/ha
  Fresh weight ratio with respect to untreated weeds, A.th: 24%
[1]; 10 g/ha
  Fresh weight ratio with respect to untreated weeds, A.th: 1%
[2]; 5 g/ha
  Fresh weight ratio with respect to untreated weeds, C.al: 15%
[2]; 10 g/ha
  Fresh weight ratio with respect to untreated weeds, C.al: 0%
[3]; 5 g/ha
  Fresh weight ratio with respect to untreated weeds, A.vi: 6%
[3]; 10 g/ha
  Fresh weight ratio with respect to untreated weeds, A.vi: 0%
[4]; 5 g/ha
  Fresh weight ratio with respect to untreated weeds, A.ar: 37%
[4]; 10 g/ha
  Fresh weight ratio with respect to untreated weeds, A.ar: 11%
weeds
  herbicidal activities in the presence of Compound (B), (C), (D) or (E): not decreased

## CCS(=O)(=O)N(C(=O)c1ccc(OC)cc1)c1cc(-n2c(=O)cc(C(F)(F)F)n(C)c2=O)c(F)cc1Cl [Compound (A4)]
maize; 40 g/ha
  Fresh weight ratio with respect to untreated plants: 73%
maize; 80 g/ha
  Fresh weight ratio with respect to untreated plants: 57%
[1]; 5 g/ha
  Fresh weight ratio with respect to untreated weeds, A.th: 27%
[1]; 10 g/ha
  Fresh weight ratio with respect to untreated weeds, A.th: 5%
[2]; 5 g/ha
  Fresh weight ratio with respect to untreated weeds, C.al: 17%
[2]; 10 g/ha
  Fresh weight ratio with respect to untreated weeds, C.al: 0%
[3]; 5 g/ha
  Fresh weight ratio with respect to untreated weeds, A.vi: 9%
[3]; 10 g/ha
  Fresh weight ratio with respect to untreated weeds, A.vi: 0%
[4]; 5 g/ha
  Fresh weight ratio with respect to untreated weeds, A.ar: 40%
[4]; 10 g/ha
  Fresh weight ratio with respect to untreated weeds, A.ar: 14%
weeds
  herbicidal activities in the presence of Compound (B), (C), (D) or (E): not decreased

## CC1(C)OC(c2ccco2)CN1C(=O)C(Cl)Cl (stereo not shown) [Compound (B)]
maize; 40 g/ha
  Fresh weight ratio with respect to untreated plants: 100%
maize; 80 g/ha
  Fresh weight ratio with respect to untreated plants: 100%
maize
  phytotoxicities to maize sown at a shallow sowing depth caused by Compound (A1), (A2), (A3) or (A4): effect of the safener: remarkably reduced
[1]; 5 g/ha
  Fresh weight ratio with respect to untreated weeds, A.th: 100%
[1]; 10 g/ha
  Fresh weight ratio with respect to untreated weeds, A.th: 100%
[2]; 5 g/ha
  Fresh weight ratio with respect to untreated weeds, C.al: 100%
[2]; 10 g/ha
  Fresh weight ratio with respect to untreated weeds, C.al: 100%
[3]; 5 g/ha
  Fresh weight ratio with respect to untreated weeds, A.vi: 100%
[3]; 10 g/ha
  Fresh weight ratio with respect to untreated weeds, A.vi: 100%
[4]; 5 g/ha
  Fresh weight ratio with respect to untreated weeds, A.ar: 100%
[4]; 10 g/ha
  Fresh weight ratio with respect to untreated weeds, A.ar: 100%

## CC1(C)CN2C(=O)CCC2(C)N(C(=O)C(Cl)Cl)C1 (stereo not shown) [Compound (C)]
maize; 40 g/ha
  Fresh weight ratio with respect to untreated plants: 100%
maize; 80 g/ha
  Fresh weight ratio with respect to untreated plants: 100%
maize
  phytotoxicities to maize sown at a shallow sowing depth caused by Compound (A1), (A2), (A3) or (A4): effect of the safener: remarkably reduced
[1]; 5 g/ha
  Fresh weight ratio with respect to untreated weeds, A.th: 100%
[1]; 10 g/ha
  Fresh weight ratio with respect to untreated weeds, A.th: 100%
[2]; 5 g/ha
  Fresh weight ratio with respect to untreated weeds, C.al: 100%
[2]; 10 g/ha
  Fresh weight ratio with respect to untreated weeds, C.al: 100%
[3]; 5 g/ha
  Fresh weight ratio with respect to untreated weeds, A.vi: 100%
[3]; 10 g/ha
  Fresh weight ratio with respect to untreated weeds, A.vi: 100%
[4]; 5 g/ha
  Fresh weight ratio with respect to untreated weeds, A.ar: 100%
[4]; 10 g/ha
  Fresh weight ratio with respect to untreated weeds, A.ar: 100%

## O=C(C(Cl)Cl)N1CCOC12CCCCC2 [Compound (D)]
maize; 40 g/ha
  Fresh weight ratio with respect to untreated plants: 100%
maize; 80 g/ha
  Fresh weight ratio with respect to untreated plants: 100%
maize
  phytotoxicities to maize sown at a shallow sowing depth caused by Compound (A1), (A2), (A3) or (A4): effect of the safener: remarkably reduced
[1]; 5 g/ha
  Fresh weight ratio with respect to untreated weeds, A.th: 100%
[1]; 10 g/ha
  Fresh weight ratio with respect to untreated weeds, A.th: 100%
[2]; 5 g/ha
  Fresh weight ratio with respect to untreated weeds, C.al: 100%
[2]; 10 g/ha
  Fresh weight ratio with respect to untreated weeds, C.al: 100%
[3]; 5 g/ha
  Fresh weight ratio with respect to untreated weeds, A.vi: 100%
[3]; 10 g/ha
  Fresh weight ratio with respect to untreated weeds, A.vi: 100%
[4]; 5 g/ha
  Fresh weight ratio with respect to untreated weeds, A.ar: 100%
[4]; 10 g/ha
  Fresh weight ratio with respect to untreated weeds, A.ar: 100%

## CC1COc2ccccc2N1C(=O)C(Cl)Cl (stereo not shown) [Compound (E)]
maize; 40 g/ha
  Fresh weight ratio with respect to untreated plants: 100%
maize; 80 g/ha
  Fresh weight ratio with respect to untreated plants: 100%
maize
  phytotoxicities to maize sown at a shallow sowing depth caused by Compound (A1), (A2), (A3) or (A4): effect of the safener: remarkably reduced
[1]; 5 g/ha
  Fresh weight ratio with respect to untreated weeds, A.th: 100%
[1]; 10 g/ha
  Fresh weight ratio with respect to untreated weeds, A.th: 100%
[2]; 5 g/ha
  Fresh weight ratio with respect to untreated weeds, C.al: 100%
[2]; 10 g/ha
  Fresh weight ratio with respect to untreated weeds, C.al: 100%
[3]; 5 g/ha
  Fresh weight ratio with respect to untreated weeds, A.vi: 100%
[3]; 10 g/ha
  Fresh weight ratio with respect to untreated weeds, A.vi: 100%
[4]; 5 g/ha
  Fresh weight ratio with respect to untreated weeds, A.ar: 100%
[4]; 10 g/ha
  Fresh weight ratio with respect to untreated weeds, A.ar: 100%
